Values quoted from earlier work as cited in article PMC1657008, “Rotavirus NSP4_114-135 peptide has no direct, specific effect on chloride transport in rabbit brush-border membrane” (Virology Journal, 2006).

Test system: neonatal mouse intestinal mucosal sheets
Conditions: added to neonatal mouse intestinal mucosal sheets; ref [1]
Source text: However, the cellular and molecular bases by which rotavirus and NSP4 induce a moderate net chloride secretion remain unclear.

In the case of `C[N+](C)(C)CCOC(N)=O` [carbachol], the Cl- secretory currents is listed as “transient, small and almost identical increases in Cl^- secretory currents”.
